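Step 1: Grow cells in 96-well plates. Step 2: Expose to compound for 48 hours at 5 concentrations. Step 3: Interpolate endpoints linearly; if unreached, use highest concentration. At the GI50, growth is halved. TGI is the concentration that stops growth completely.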
Key:
Assay in all cases: inhibition of tumour cell growth, NCI panel, 48 h
786-0 renal = test system: 786-0 renal
A498 renal = test system: A498 renal
A549 NSCLC = test system: A549 NSCLC
ACHN renal = test system: ACHN renal
BT-549 breast = test system: BT-549 breast
CAKI-1 renal = test system: CAKI-1 renal
CCRF-CEM leukemia = test system: CCRF-CEM leukemia
COLO 205 colon = test system: COLO 205 colon
DU-145 prostate = test system: DU-145 prostate
EKVX NSCLC = test system: EKVX NSCLC
HCC-2998 colon = test system: HCC-2998 colon
HCT-116 colon = test system: HCT-116 colon
HCT-15 colon = test system: HCT-15 colon
HL-60(TB) leukemia = test system: HL-60(TB) leukemia
HOP-62 NSCLC = test system: HOP-62 NSCLC
HOP-92 NSCLC = test system: HOP-92 NSCLC
HS 578T breast = test system: HS 578T breast
HT29 colon = test system: HT29 colon
IGROV1 ovarian = test system: IGROV1 ovarian
K-562 leukemia = test system: K-562 leukemia
KM12 colon = test system: KM12 colon
LOX IMVI melanoma = test system: LOX IMVI melanoma
M14 melanoma = test system: M14 melanoma
MALME-3M melanoma = test system: MALME-3M melanoma
MCF7 breast = test system: MCF7 breast
MDA-MB-231 breast = test system: MDA-MB-231 breast
MDA-MB-435 = test system: MDA-MB-435
MOLT-4 leukemia = test system: MOLT-4 leukemia
NCI-H226 lung = test system: NCI-H226 lung
NCI-H23 lung = test system: NCI-H23 lung
NCI-H460 lung = test system: NCI-H460 lung
NCI-H522 lung = test system: NCI-H522 lung
NCI/ADR-RES ovarian = test system: NCI/ADR-RES ovarian
OVCAR-3 ovarian = test system: OVCAR-3 ovarian
OVCAR-4 ovarian = test system: OVCAR-4 ovarian
OVCAR-5 ovarian = test system: OVCAR-5 ovarian
OVCAR-8 ovarian = test system: OVCAR-8 ovarian
PC-3 prostate = test system: PC-3 prostate
RPMI-8226 leukemia = test system: RPMI-8226 leukemia
RXF 393 renal = test system: RXF 393 renal
SF-268 CNS = test system: SF-268 CNS
SF-295 CNS = test system: SF-295 CNS
SF-539 CNS = test system: SF-539 CNS
SK-MEL-2 melanoma = test system: SK-MEL-2 melanoma
SK-MEL-28 melanoma = test system: SK-MEL-28 melanoma
SK-MEL-5 melanoma = test system: SK-MEL-5 melanoma
SK-OV-3 ovarian = test system: SK-OV-3 ovarian
SN12C renal = test system: SN12C renal
SNB-19 CNS = test system: SNB-19 CNS
SNB-75 CNS = test system: SNB-75 CNS
SR leukemia = test system: SR leukemia
SW-620 colon = test system: SW-620 colon
T-47D breast = test system: T-47D breast
TK-10 renal = test system: TK-10 renal
U251 CNS = test system: U251 CNS
UACC-257 melanoma = test system: UACC-257 melanoma
UACC-62 melanoma = test system: UACC-62 melanoma
UO-31 renal = test system: UO-31 renal

With CC[C@@]1(O)C(=O)OCc2c1cc1n(c2=O)Cc2c-1nc1ccccc1c2/C=N/OC(C)(C)C the GI50 (786-0 renal) was < 10 nM, the TGI (786-0 renal) was 11.2 µM and the GI50 (A498 renal) was < 16.9 nM. The TGI (A498 renal) was 169 nM, the GI50 (A549 NSCLC) was < 10 nM and the TGI (A549 NSCLC) was 1520 nM. For the same compound, the GI50 (ACHN renal) was < 10 nM, the TGI (ACHN renal) was 127 nM and the GI50 (BT-549 breast) was < 13.9 nM. The TGI (BT-549 breast) was 2020 nM, the GI50 (CAKI-1 renal) was < 10 nM and the TGI (CAKI-1 renal) was 149 nM. For the same compound, the GI50 (CCRF-CEM leukemia) was < 10 nM, the TGI (CCRF-CEM leukemia) was > 100 µM and the GI50 (COLO 205 colon) was 48.3 nM. The TGI (COLO 205 colon) was 2050 nM, the GI50 (DU-145 prostate) was < 10 nM and the TGI (DU-145 prostate) was 13.5 µM. The GI50 (EKVX NSCLC) was 73 nM, the TGI (EKVX NSCLC) was 23.8 µM and the GI50 (HCC-2998 colon) was 183 nM. For the same compound, the TGI (HCC-2998 colon) was 14.1 µM, the GI50 (HCT-116 colon) was < 10 nM and the TGI (HCT-116 colon) was 13.4 µM. For the same compound, the GI50 (HCT-15 colon) was 82 nM, the TGI (HCT-15 colon) was 25.7 µM and the GI50 (HL-60(TB) leukemia) was < 10 nM. The TGI (HL-60(TB) leukemia) was < 12.5 nM, the GI50 (HOP-62 NSCLC) was < 10 nM and the TGI (HOP-62 NSCLC) was 530 nM. The GI50 (HOP-92 NSCLC) was < 14.9 nM, the TGI (HOP-92 NSCLC) was 3.4 µM and the GI50 (HS 578T breast) was 1130 nM. For the same compound, the TGI (HS 578T breast) was > 85.5 µM, the GI50 (HT29 colon) was 18.7 nM and the TGI (HT29 colon) was 660 nM. For the same compound, the GI50 (IGROV1 ovarian) was 39.1 nM, the TGI (IGROV1 ovarian) was 5.26 µM and the GI50 (K-562 leukemia) was 18.9 nM. For the same compound, the TGI (K-562 leukemia) was > 100 µM, the GI50 (KM12 colon) was 44.1 nM and the TGI (KM12 colon) was 4.84 µM. The GI50 (LOX IMVI melanoma) was < 10 nM, the TGI (LOX IMVI melanoma) was 133 nM and the GI50 (M14 melanoma) was < 10 nM. The TGI (M14 melanoma) was 226 nM, the GI50 (MALME-3M melanoma) was 32 nM and the TGI (MALME-3M melanoma) was 1580 nM. The GI50 (MCF7 breast) was < 10 nM, the TGI (MCF7 breast) was 5.69 µM and the GI50 (MDA-MB-231 breast) was 552 nM. It also gave a TGI (MDA-MB-231 breast) of 18.1 µM, a GI50 (MDA-MB-435) of 30.1 nM and a TGI (MDA-MB-435) of 3.92 µM. For the same compound, the GI50 (MOLT-4 leukemia) was < 10 nM, the TGI (MOLT-4 leukemia) was 742 nM and the GI50 (NCI-H226 lung) was < 10 nM. For the same compound, the TGI (NCI-H226 lung) was 35.5 nM, the GI50 (NCI-H23 lung) was < 10 nM and the TGI (NCI-H23 lung) was 158 nM. For the same compound, the GI50 (NCI-H460 lung) was < 10 nM, the TGI (NCI-H460 lung) was 1950 nM and the GI50 (NCI-H522 lung) was < 12.4 nM. For the same compound, the TGI (NCI-H522 lung) was 81.2 nM, the GI50 (NCI/ADR-RES ovarian) was < 10 nM and the TGI (NCI/ADR-RES ovarian) was 395 nM. For the same compound, the GI50 (OVCAR-3 ovarian) was 80.4 nM, the TGI (OVCAR-3 ovarian) was 1780 nM and the GI50 (OVCAR-4 ovarian) was 311 nM. For the same compound, the TGI (OVCAR-4 ovarian) was 13.9 µM, the GI50 (OVCAR-5 ovarian) was 113 nM and the TGI (OVCAR-5 ovarian) was 5.47 µM. The GI50 (OVCAR-8 ovarian) was < 11.8 nM, the TGI (OVCAR-8 ovarian) was > 42.1 µM and the GI50 (PC-3 prostate) was 76.9 nM. The TGI (PC-3 prostate) was 27.2 µM, the GI50 (RPMI-8226 leukemia) was 11.6 nM and the TGI (RPMI-8226 leukemia) was 551 nM. The GI50 (RXF 393 renal) was < 10 nM, the TGI (RXF 393 renal) was 63.9 nM and the GI50 (SF-268 CNS) was < 10 nM. The TGI (SF-268 CNS) was 2800 nM, the GI50 (SF-295 CNS) was < 10 nM and the TGI (SF-295 CNS) was 599 nM. For the same compound, the GI50 (SF-539 CNS) was < 10 nM, the TGI (SF-539 CNS) was < 21.6 nM and the GI50 (SK-MEL-2 melanoma) was 44.7 nM. It also gave a TGI (SK-MEL-2 melanoma) of 1220 nM, a GI50 (SK-MEL-28 melanoma) of 372 nM and a TGI (SK-MEL-28 melanoma) of 9.07 µM. For the same compound, the GI50 (SK-MEL-5 melanoma) was < 10 nM, the TGI (SK-MEL-5 melanoma) was 102 nM and the GI50 (SK-OV-3 ovarian) was < 10 nM. The TGI (SK-OV-3 ovarian) was 1340 nM, the GI50 (SN12C renal) was < 10 nM and the TGI (SN12C renal) was 4.75 µM. The GI50 (SNB-19 CNS) was < 10 nM, the TGI (SNB-19 CNS) was 10.9 µM and the GI50 (SNB-75 CNS) was < 10.9 nM. For the same compound, the TGI (SNB-75 CNS) was 978 nM, the GI50 (SR leukemia) was < 10 nM and the TGI (SR leukemia) was 108 nM. For the same compound, the GI50 (SW-620 colon) was < 11 nM, the TGI (SW-620 colon) was 14.2 µM and the GI50 (T-47D breast) was < 10 nM. The TGI (T-47D breast) was 15.1 µM, the GI50 (TK-10 renal) was 78.7 nM and the TGI (TK-10 renal) was 3.52 µM. The GI50 (U251 CNS) was < 10 nM, the TGI (U251 CNS) was 812 nM and the GI50 (UACC-257 melanoma) was 66.6 nM. The TGI (UACC-257 melanoma) was 1320 nM, the GI50 (UACC-62 melanoma) was < 10 nM and the TGI (UACC-62 melanoma) was 118 nM. For the same compound, the GI50 (UO-31 renal) was < 10 nM and the TGI (UO-31 renal) was 122 nM.
